Data on 1 molecule can be found in patent publication US20080000489A1, “Method and preparation for binding aldehydes in saliva” (BIOHIT OYJ, priority 2000, published 2008).

A short description of the assay: Salivary acetaldehyde in smokers sucking blinded L-cysteine tablets during cigarette smoking, gas chromatography. Type of assay: in vivo, human. Particulars: for mean salivary acetaldehyde concentration immediately after smoking: five smokers, placebo 191.2±48.5 μM. The procedure: Five smokers (age 29±2.8) participated in the study, in which […] were smoked (wash-out periods between). During every cigarette smoking (in 5 min time) volunteers sucked blinded tablets containing placebo, 1.25 mg, 2.5 mg, 5 mg, 10 mg or 20 mg L-cysteine. Acetaldehyde was analysed from salivary samples gas chromatographically at 0, 5, 10, 20 min from the beginning of smoking.
The mean salivary acetaldehyde concentrations immediately after smoking were 191.2±48.5 μM, 0 μM, 0 μM, 0 μM with placebo, 5 mg, 10 mg and 20 mg L-cysteine tablets, respectively.

Turning to `N[C@@H](CS)C(=O)O` [L-cysteine], the “amount of acetaldehyde compared to placebo” value (1.25 mg L-cysteine tablet) is listed as “about to third compared to placebo”. Besides, the “mean salivary acetaldehyde concentration immediately after smoking” value runs as follows: (5 mg L-cysteine tablet sucked during 5 min smoking) 0 µM; (10 mg L-cysteine tablet sucked during 5 min smoking) 0 µM; (20 mg L-cysteine tablet sucked during 5 min smoking) 0 µM. Besides, the “carcinogenic acetaldehyde in the saliva during smoking” value (5 mg of L-cysteine administered by melting-tablet) was “totally inactivates”. The “tobacco-originated acetaldehyde from the saliva” value (L-cysteine tablets 5 mg, 10 and 20 mg, FIG. 4) is “totally eradicated”.
